Measured values taken from publication PMC8222343, “A new non-classical fold of varroa odorant-binding proteins reveals a wide open internal cavity” (Scientific Reports, 2021).
pKd: −log10 of the molar value.

Columns and labels:
Format in all cases: binding
VdesOBP1 = biological target: T1, VdesOBP1 (Varroa destructor, UniProt A0A7M7KVA6); assay: intrinsic tryptophan fluorescence quenching
T1 construct: 147 residues; monomer
T1 sequence (A0A7M7KVA6 16-162): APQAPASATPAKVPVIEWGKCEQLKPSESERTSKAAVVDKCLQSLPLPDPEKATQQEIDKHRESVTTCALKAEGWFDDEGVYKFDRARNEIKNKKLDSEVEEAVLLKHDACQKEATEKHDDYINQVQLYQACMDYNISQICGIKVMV

VdesOBP5 = biological target: T2, VdesOBP5 (Varroa destructor, UniProt A0A7M7KHR4); assay: fluorescent probe titration; details: read-out: KNPN
T2 sequence (A0A7M7KHR4 22-231): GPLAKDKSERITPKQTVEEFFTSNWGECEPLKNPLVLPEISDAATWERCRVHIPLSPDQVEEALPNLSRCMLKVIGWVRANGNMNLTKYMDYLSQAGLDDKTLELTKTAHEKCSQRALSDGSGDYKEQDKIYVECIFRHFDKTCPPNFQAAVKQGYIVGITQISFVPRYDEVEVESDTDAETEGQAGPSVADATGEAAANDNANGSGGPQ
Text: fluorescent probe titration on VdesOBP5 | with VdesOBP4 and VdesOBP5 we obtained clear binding curves using 1-NPN as the fluorescent reporter

VdesOBP2 = biological target: T3, VdesOBP2 (Varroa destructor, UniProt A0A7M7JBN7); assay: intrinsic tryptophan fluorescence quenching; details: excitation 295 nm, emission 335-340 nm
T3 sequence (A0A7M7JBN7 16-163 limits assumed): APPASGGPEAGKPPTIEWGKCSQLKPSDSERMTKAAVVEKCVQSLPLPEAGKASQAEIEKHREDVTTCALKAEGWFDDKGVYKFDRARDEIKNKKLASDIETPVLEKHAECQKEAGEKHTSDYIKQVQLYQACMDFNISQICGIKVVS

[1] = excitation 295 nm, emission 335-340 nm

SMILES | quenching of intrinsic tryptophan fluorescence (VdesOBP1; dose-dependent quenching, probe emission itself unchanged) | pKd (VdesOBP5) | quenching of intrinsic tryptophan fluorescence (VdesOBP2) | quenching of intrinsic tryptophan fluorescence (VdesOBP1; [1])
c1ccc(Nc2cccc3ccccc23)cc1 [N-phenyl-1-naphthylamine] | we observed a dose-dependent quenching of the intrinsic tryptophan fluorescence | 5.37 | – | –
COc1cc(/C=C/C=O)ccc1O [coniferyl aldehyde] | – | – | they determined significant quenching of intrinsic tryptophan fluorescence in VdesOBP1 and VdesOBP2 | they determined significant quenching of intrinsic tryptophan fluorescence in VdesOBP1 and VdesOBP2
CC1=C(C=O)C(C)(C)CC=C1 [safranal] | – | – | they determined significant quenching of intrinsic tryptophan fluorescence in VdesOBP1 and VdesOBP2 | they determined significant quenching of intrinsic tryptophan fluorescence in VdesOBP1 and VdesOBP2
COc1cc(C=O)ccc1O [vanillin] | – | – | they determined significant quenching of intrinsic tryptophan fluorescence in VdesOBP1 and VdesOBP2 | they determined significant quenching of intrinsic tryptophan fluorescence in VdesOBP1 and VdesOBP2
